Data set [1] can be described thus: clinical. The conditions noted are these: human, in vivo.
Protocol: (§1) At weeks 1, 6, and 12, serial whole blood samples were drawn and drug concentrations were determined. PK and PD were evaluated using standard non-compartmental analysis and a calcineurin inhibition assay. […] Whole blood lysates were evaluated for their ability to dephosphorylate a ^32P-labelled 19 amino acid peptide substrate in the presence of okadaic acid, a phosphatast type 1 and 2 inhibitor. Background phosphatase 2C activity (CsA and okadaic acid resistant activity) was determined and subtracted from each sample, with the assay performed in the presence and absence of excess added CsA. The remaining phosphatase activity was taken as calcineurin activity. Serum creatinine was measured from blood samples, as a measure of renal toxicity.
(§2) A direct PK-PD correlation was performed using a sigmoid Emax model.
A measurement taken at 8 hours was used as peak concentration in the absence of a C2 measurement in this study. […] Cmin measurement could be a measurement taken at C0 or at C8, whichever measurement gave the lower measurement.
Percent fluctuation (FLU) was calculated as shown in Formula (2): [formula]
The test system of data set [2] is stable renal transplant patients. The conditions noted are these: human, in vivo, 12 week.
Protocol: as §1
This discriminant analysis was performed using SPSS for Windows version 10.1 software available from SPSS Inc.
A measurement taken at 8 hours was used as peak concentration in the absence of a C2 measurement in this study. […] Cmin measurement could be a measurement taken at C0 or at C8, whichever measurement gave the lower measurement. […] Clinical diagnosis of renal toxicity may require an increase of, for example, 50% over baseline.
The test system of data set [3] is psoriasis patients. Nature of the data set: Psoriasis Area and Severity Index (PASI) vs trough concentration in psoriasis patients. The conditions noted are these: FIG. 2. The format is in vivo, human. From the text:
While % CNI is used in FIG. 1 to illustrate drug efficacy, there are other ways to measure transplant drug efficacy or calcineurin inhibitor drug efficacy. For example, in animal models, graft survival in transplantation is an indication of immunosuppressive drug efficacy. However, graft survival is an experimental model that takes a long time to measure and is complicated in that grafts may not survive for reasons other than the effective concentration of immunosuppressive agents. For example, prolonged cold ischemic time, donor/recipient mismatch or surgical technique may affect outcome of a graft. In human transplant patients, episodes of rejection may be indicators of failure of a calcineurin inhibitor. Other markers may be patient survival, in the case of transplant. For Psoriasis, a decrease in Psoriasis Area and Severity Index (PASI) score is an indication of effective treatment of psoriasis. A 75% reduction in PASI score is commonly held as a successful therapy.
Using PASI score as another indicator of drug efficacy, FIG. 2 illustrates that as drug concentration increases, the PASI score, an indicator of psoriasis severity, decreases. […] EC50 is an indication of the potency of the drug. […] FIG. 2 illustrates the relationship between trough drug concentration (C0) and PASI score on day 42 of treatment where E equals effect, in this case measured by PASI score.

Data set [4] has as its system calcineurin. Description: Calcineurin inhibition assay on whole blood lysates, PK-PD sigmoid Emax model (Study A, phase II). It counts as in vivo, human. Conditions: FIG. 4A/4B; peak (C2) concentration vs % CNI.
Protocol: At weeks 1, 6, and 12, serial whole blood samples were drawn and drug concentrations were determined. PK and PD were evaluated using standard non-compartmental analysis and a calcineurin inhibition assay. […] Whole blood lysates were evaluated for their ability to dephosphorylate a ^32P-labelled 19 amino acid peptide substrate in the presence of okadaic acid, a phosphatast type 1 and 2 inhibitor. Background phosphatase 2C activity (CsA and okadaic acid resistant activity) was determined and subtracted from each sample, with the assay performed in the presence and absence of excess added CsA. The remaining phosphatase activity was taken as calcineurin activity.
as §2
AIC is the Akaike Information Criterion. It is a dimensionless “goodness of fit” parameter that is a modification of an ‘F-test.’ The lower the AIC number the better the fit. This relationship was constructed using concentrations from trough (C0) through hour 4 (C4).

In brackets after ≈: the same amount, converted by molar mass.

As a reminder, the Cmax is the highest concentration seen after dosing.

`C=C/C=C/C[C@@H](C)[C@@H](O)[C@H]1C(=O)N[C@@H](CC)C(=O)N(C)CC(=O)N(C)[C@@H](CC(C)C)C(=O)N[C@@H](C(C)C)C(=O)N(C)[C@@H](CC(C)C)C(=O)N[C@@H](C)C(=O)N[C@H](C)C(=O)N(C)[C@@H](CC(C)C)C(=O)N(C)[C@@H](CC(C)C)C(=O)N(C)[C@@H](C(C)C)C(=O)N1C` [ISA247]: in data set [1], the “Cmax, mean” value stood at 159.59 ng/mL; the “t1/2, comparison between the two drugs” value is reported as “similar”; the “time to maximum concentration (tmax), comparison between the two drugs” value is “similar”. The “C8, mean” value in data set [1] (8 h) is reported as 54.327 ng/mL. The concentration at 8 h in data set [1] (C8, mean) came to 37.3 ng/mL. In data set [1] (Cmax, mean), this compound showed a peak concentration (Cmax) of 188 ng/mL. Further, in data set [2], the “number of patients with normal renal function (actual group membership)” value was determined as 121 and the “number of patients with renal toxicity (actual group membership)” value is 26. Moreover, the “Emax, maximum possible mean PASI” value in data set [3] (trough (C0) concentration vs PASI on day 42) was 22.9±7 PAS1. The EC50 in data set [3] (Homo sapiens, 1008 h, read-out: EC50, trough concentration required to achieve a 50% reduction in PASI, trough (C0), day 42 of treatment) is 0.0135 ± 0.0081 µg/mL (≈ 0.0111 µM). Further, the EC50 in data set [4] is 161.8+54.5 ng/mL.

The values above are taken from US20060014677A1, “Method for maximizing efficacy and predicting and minimizing toxicity of calcineurin inhibitor compounds” (Isotechnika International Inc., priority 2004, published 2006).
